Experimental data from publication PMC6204753, “Non-native autoinducer analogs capable of modulating the SdiA quorum sensing receptor in Salmonella enterica serovar Typhimurium” (Beilstein Journal of Organic Chemistry, 2018).

Molecular target: SdiA (Salmonella enterica subsp. enterica serovar Typhimurium, UniProt O66040)
Experiment: S. Typhimurium-pJNS25 SdiA reporter, competitive antagonism against 10 nM L-OOHL
Assay type: cell-based
Conditions: average ± STD, change in activity from 10 nM 2 (OOHL); for Antagonism 1 μM Inhibition (%): 1 μM compound; for Antagonism 100 μM Inhibition (%): 100 μM compound
From the text: Biological assays for SdiA activity. Cell-based reporter strains that rely on detecting the transcriptional activity of LuxR-type receptors are commonly used to assess the activity of exogenous ligands. We used the S. Typhimurium-pJNS25 reporter strain constructed by Smith and Ahmer and also used by Janssens et al. to examine SdiA activity. This strain naturally produces SdiA and contains a reporter plasmid with the promoter region for srgE fused to the luxABCDE operon of V. fischeri (see Experimental section for details of all strains and plasmids). SdiA activity is thus reported by the production of luciferase and resulting bioluminescence. We also prepared an SdiA reporter in E. coli (JLD271-pJN105SE-pSC11SE) to examine S. Typhimurium SdiA activity in an alternate background and with a different reporter gene output. […] This reporter construct uses an arabinose inducible promoter to produce S. Typhimurium SdiA and the promoter region for srgE fused to lacZ to report SdiA activity. SdiA activity is then measured using standard β-galactosidase assays. In both reporter strains, signal was normalized to the difference between the positive control (10 μM OOHL) and the negative control (1% DMSO; no compound).
Salmonella SdiA reporter assay. S. Typhimurium-pJNS25 was grown 16–18 h overnight in LB, diluted 1:100 in fresh LB medium, and then incubated for 6 h at 37 °C with shaking at 200 rpm in the presence of compounds (1% DMSO). […] All compounds were screened at 100 μM and 1 μM in triplicate in agonism and antagonism assays. […] Dose–response analyses were performed by preparing dilutions of compounds in DMSO and testing each concentration in the agonism or antagonism assays. Competition dose–response assays (data in Figure 5) were performed in the same manner as the antagonism assays, except instead of OOHL being added to the subculture, the antagonist being tested was added. Non-linear regression curve fits were generated using GraphPad Prism software (version 6) using variable slope (four parameter) dose–response analysis.

Chain of SdiA (O66040 entry or part of it): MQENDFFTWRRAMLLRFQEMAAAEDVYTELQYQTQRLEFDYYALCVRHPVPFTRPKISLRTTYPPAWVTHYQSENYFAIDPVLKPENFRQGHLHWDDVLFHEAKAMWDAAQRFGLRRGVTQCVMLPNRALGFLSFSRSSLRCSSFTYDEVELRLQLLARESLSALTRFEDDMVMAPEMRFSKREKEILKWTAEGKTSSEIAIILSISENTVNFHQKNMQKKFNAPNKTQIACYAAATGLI

Row | Structure (SMILES) | Antagonism 1 μM Inhibition (%) | Antagonism 100 μM Inhibition (%)
1 | O=C(NCc1cc(Br)cc(Br)c1OC(=O)c1ccccc1[N+](=O)[O-])c1ccccc1Cl [19P, reference compound] | 39 ± 16 | 25 ± 16
2 | CCCCCCCCCC(=O)N[C@H]1CCOC1=O [A4] | 12 ± 19 | 18 ± 7
3 | CCCCCS(=O)(=O)N[C@H]1CCOC1=O [A9] | 10 ± 9 | 13 ± 2
4 | O=C(CCCc1ccccc1)NC1CCOC1=O (stereo not drawn) [B3] | 34 ± 5 | 16 ± 3
5 | O=C(CCCc1c[nH]c2ccccc12)N[C@@H]1CCOC1=O [B5] | 30 ± 15 | -8 ± 5
6 | O=C(N[C@H]1CCOC1=O)c1ccc(Br)cc1 [B6] | 25 ± 11 | -14 ± 17
7 | O=C(N[C@H]1CCOC1=O)c1ccccc1 [B8] | 26 ± 3 | -13 ± 11
8 | O=C(CCc1ccccc1)N[C@H]1CCOC1=O [B9] | 13 ± 10 | 18 ± 14
9 | O=C(C=Cc1ccccc1)NC1CCOC1=O (stereo not drawn) [B10] | 16 ± 5 | -56 ± 11
10 | O=C(Cc1c[nH]c2ccccc12)N[C@H]1CCOC1=O [B13] | 8 ± 10 | 13 ± 13
11 | O=C(CCc1c[nH]c2ccccc12)N[C@H]1CCOC1=O [B14] | 10 ± 2 | 18 ± 5
12 | O=C(Cc1ccccc1)N[C@H]1CCOC1=O [C1] | 9 ± 12 | -6 ± 5
13 | O=C(Cc1ccc(F)cc1)N[C@H]1CCOC1=O [C2] | 2 ± 8 | -8 ± 18
14 | O=C(Cc1cccc(F)c1)N[C@H]1CCOC1=O [C3] | -1 ± 15 | -18 ± 12
15 | O=C(Cc1ccccc1F)N[C@H]1CCOC1=O [C4] | 3 ± 6 | -31 ± 10
16 | O=C(Cc1ccc(Cl)cc1)N[C@H]1CCOC1=O [C5] | 13 ± 6 | 18 ± 7
17 | O=C(Cc1ccccc1Cl)N[C@H]1CCOC1=O [C7] | 22 ± 6 | -32 ± 5
18 | O=C(Cc1ccccc1I)N[C@H]1CCOC1=O [C12] | 9 ± 13 | -24 ± 12
19 | O=C(Cc1ccc([N+](=O)[O-])cc1)N[C@H]1CCOC1=O [C13] | 24 ± 4 | 14 ± 9
20 | O=C(Cc1ccccc1[N+](=O)[O-])N[C@H]1CCOC1=O [C15] | 5 ± 2 | -17 ± 18
21 | O=C(Cc1c(F)c(F)c(F)c(F)c1F)N[C@H]1CCOC1=O [C16] | 5 ± 3 | -32 ± 18
22 | [N-]=[N+]=Nc1ccc(CC(=O)N[C@H]2CCOC2=O)cc1 [C17] | 13 ± 11 | 9 ± 6
23 | O=C(Cc1ccc(C(F)(F)F)cc1)N[C@H]1CCOC1=O [C20] | 15 ± 10 | 8 ± 6
24 | Nc1ccc(CC(=O)N[C@H]2CCOC2=O)cc1 [C21] | 4 ± 12 | 13 ± 4
25 | CC(C)(C)OC(=O)Nc1ccc(CC(=O)N[C@H]2CCOC2=O)cc1 [C22] | -9 ± 2 | 6 ± 6
26 | O=C(Cc1ccc(O)cc1)N[C@H]1CCOC1=O [C23] | 6 ± 2 | 16 ± 3

Row | Structure (SMILES) | Antagonism 1 μM Inhibition (%) | Antagonism 100 μM Inhibition (%)
27 | CCOc1ccc(CC(=O)N[C@H]2CCOC2=O)cc1 [C25] | 12 ± 8 | 7 ± 5
28 | O=C(CCc1cccs1)N[C@H]1CCOC1=O [D3] | 10 ± 2 | 6 ± 9
29 | Cc1nc(-c2ccccc2)oc1CC(=O)N[C@H]1CCOC1=O [D4] | 28 ± 13 | -6 ± 4
30 | Cc1ccc(C(=O)CCC(=O)N[C@H]2CCOC2=O)cc1 [D6] | 21 ± 19 | 3 ± 12
31 | O=C(N[C@H]1CCOC1=O)c1cnn(-c2ccccc2)c1C(F)(F)F [D9] | 26 ± 6 | 9 ± 1
32 | O=C(N[C@H]1CCOC1=O)c1ccc(-c2csnn2)cc1 [D10] | 23 ± 6 | 14 ± 12
33 | CCCCCCCCc1ccc(C(=O)N[C@H]2CCOC2=O)cc1 [D13] | 17 ± 7 | 23 ± 7
34 | COc1cc(C(C)=O)ccc1OCC(=O)N[C@H]1CCOC1=O [D16] | 19 ± 6 | 3 ± 6
35 | COc1ccccc1C1CCN(c2ccc(/C=C/C(=O)N[C@H]3CCOC3=O)cc2[N+](=O)[O-])CC1 [D18] | 18 ± 8 | 32 ± 5
36 | COc1cccc(CC(=O)N[C@H]2CCOC2=O)c1 [E2] | -5 ± 1 | -8 ± 14
37 | O=C(Cc1cccc(C(F)(F)F)c1)N[C@H]1CCOC1=O [E3] | -14 ± 16 | 5 ± 8
38 | N#Cc1ccc(CC(=O)N[C@H]2CCOC2=O)cc1 [E4] | 12 ± 6 | -17 ± 18
39 | O=C(Cc1ccc(SC(F)(F)F)cc1)N[C@H]1CCOC1=O [E8] | 34 ± 11 | 31 ± 7
40 | O=C(Cc1cc(C(F)(F)F)cc(C(F)(F)F)c1)N[C@H]1CCOC1=O [E9] | 18 ± 8 | 21 ± 8
41 | O=C(Cc1ccc2ccccc2c1)N[C@H]1CCOC1=O [E12] | -13 ± 9 | 0 ± 15
42 | O=C(COc1cccc([N+](=O)[O-])c1)N[C@H]1CCOC1=O [E25] | 5 ± 18 | 9 ± 12
43 | COc1ccc(CCC(=O)N[C@H]2CCOC2=O)cc1 [E28] | 11 ± 18 | 6 ± 15
44 | O=C(CCc1cccc(Br)c1)N[C@H]1CCOC1=O [E31] | 13 ± 10 | 6 ± 6
45 | O=C(CCc1ccc(I)cc1)N[C@H]1CCOC1=O [E32] | 19 ± 14 | 24 ± 13
46 | O=C(CCc1ccc([N+](=O)[O-])cc1)N[C@H]1CCOC1=O [E37] | 34 ± 5 | 23 ± 5
47 | O=C(CCc1cccc([N+](=O)[O-])c1)N[C@H]1CCOC1=O [E38] | 15 ± 11 | 32 ± 6
48 | O=C(CCc1ccc2c(c1)OCO2)N[C@H]1CCOC1=O [E39] | 10 ± 15 | 12 ± 3
49 | CCCCCCCCCCCC(=O)N[C@H]1CCSC1=O [F4] | -2 ± 11 | 2 ± 5
50 | CCCCCCC(=O)N[C@H]1CCSC1=O [F6] | 5 ± 5 | -2 ± 7
51 | CCCCCC(=O)N[C@H]1CCSC1=O [F7] | 7 ± 9 | -12 ± 4
